Reference: the kinase profiling compilation of Christmann-Franck et al. (2016)

Experiments:
Assay in all cases: radiometric filter-binding kinase assay
[1] = target: PRKAA1 PRKAB2 PRKAG1 (human) (UniProt O43741+Q13131+P54619)
TTBK2 (human) = TTBK2 (human) (UniProt Q6IQ55)
ULK1 (human) = ULK1 (human) (UniProt O75385)
SIK2 (human) = SIK2 (human) (UniProt Q9H0K1)
ABL1 (human) = ABL1 (human) (UniProt P00519)
WNK1 (human) = WNK1 (human) (UniProt Q9H4A3)
CSNK1G2 (human) = CSNK1G2 (human) (UniProt P78368)
[2] = tested on: OXSR1 (human), O95747 [T185E]
TTBK1 (human) = TTBK1 (human) (UniProt Q5TCY1)
CHEK2 (human) = CHEK2 (human) (UniProt O96017)
MAP4K3 (human) = MAP4K3 (human) (UniProt Q8IVH8)
PDGFRA (human) = PDGFRA (human) (UniProt P16234)
PRKCG (human) = PRKCG (human) (UniProt P05129)
TLK1 (human) = TLK1 (human) (UniProt Q9UKI8)
IRAK1 (human) = IRAK1 (human) (UniProt P51617)
STK33 (human) = STK33 (human) (UniProt Q9BYT3)
SIK3 (human) = SIK3 (human) (UniProt Q9Y2K2)
TEK (human) = TEK (human) (UniProt Q02763)
EIF2AK3 (human) = EIF2AK3 (human) (UniProt Q9NZJ5)
STK24 (human) = STK24 (human) (UniProt Q9Y6E0)
TESK1 (human) = TESK1 (human) (UniProt Q15569)
STK16 (human) = STK16 (human) (UniProt O75716); conditions: compound 10.0 µM
ULK2 (human) = ULK2 (human) (UniProt Q8IYT8)
Sequence of ULK2 (human) (Q8IYT8 whole entry, looked up): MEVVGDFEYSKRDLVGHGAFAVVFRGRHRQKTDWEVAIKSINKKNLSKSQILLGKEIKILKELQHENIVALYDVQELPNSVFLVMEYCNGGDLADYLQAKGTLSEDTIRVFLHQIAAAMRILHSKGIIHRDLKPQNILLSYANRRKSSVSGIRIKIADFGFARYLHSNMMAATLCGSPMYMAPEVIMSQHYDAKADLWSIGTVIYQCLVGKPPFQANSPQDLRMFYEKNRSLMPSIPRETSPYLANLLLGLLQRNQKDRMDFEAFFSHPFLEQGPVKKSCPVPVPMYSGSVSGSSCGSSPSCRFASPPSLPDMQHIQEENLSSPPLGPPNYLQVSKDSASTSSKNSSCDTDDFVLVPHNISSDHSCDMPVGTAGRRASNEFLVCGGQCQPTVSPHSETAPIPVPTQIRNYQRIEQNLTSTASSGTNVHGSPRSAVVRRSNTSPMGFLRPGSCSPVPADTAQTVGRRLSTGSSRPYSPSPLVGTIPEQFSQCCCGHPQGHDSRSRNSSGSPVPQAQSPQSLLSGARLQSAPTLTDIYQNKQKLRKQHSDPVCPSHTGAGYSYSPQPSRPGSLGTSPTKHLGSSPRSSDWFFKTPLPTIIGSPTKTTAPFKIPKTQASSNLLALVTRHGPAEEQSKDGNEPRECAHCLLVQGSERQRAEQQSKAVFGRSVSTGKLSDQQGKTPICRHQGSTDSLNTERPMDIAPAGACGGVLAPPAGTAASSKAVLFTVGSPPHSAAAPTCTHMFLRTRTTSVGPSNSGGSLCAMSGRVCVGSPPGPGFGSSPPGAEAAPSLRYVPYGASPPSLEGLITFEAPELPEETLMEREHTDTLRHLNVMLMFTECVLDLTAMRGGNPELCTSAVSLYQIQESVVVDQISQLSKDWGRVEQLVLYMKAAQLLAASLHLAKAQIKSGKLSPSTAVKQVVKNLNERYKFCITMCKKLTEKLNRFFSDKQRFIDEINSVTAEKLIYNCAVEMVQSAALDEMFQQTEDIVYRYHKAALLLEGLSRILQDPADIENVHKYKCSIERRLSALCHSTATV

MARK3 (human) = MARK3 (human) (UniProt P27448)
PTK6 (human) = PTK6 (human) (UniProt Q13882)
ZAP70 (human) = ZAP70 (human) (UniProt P43403)
Sequence of ZAP70 (human) (P43403 whole entry, looked up): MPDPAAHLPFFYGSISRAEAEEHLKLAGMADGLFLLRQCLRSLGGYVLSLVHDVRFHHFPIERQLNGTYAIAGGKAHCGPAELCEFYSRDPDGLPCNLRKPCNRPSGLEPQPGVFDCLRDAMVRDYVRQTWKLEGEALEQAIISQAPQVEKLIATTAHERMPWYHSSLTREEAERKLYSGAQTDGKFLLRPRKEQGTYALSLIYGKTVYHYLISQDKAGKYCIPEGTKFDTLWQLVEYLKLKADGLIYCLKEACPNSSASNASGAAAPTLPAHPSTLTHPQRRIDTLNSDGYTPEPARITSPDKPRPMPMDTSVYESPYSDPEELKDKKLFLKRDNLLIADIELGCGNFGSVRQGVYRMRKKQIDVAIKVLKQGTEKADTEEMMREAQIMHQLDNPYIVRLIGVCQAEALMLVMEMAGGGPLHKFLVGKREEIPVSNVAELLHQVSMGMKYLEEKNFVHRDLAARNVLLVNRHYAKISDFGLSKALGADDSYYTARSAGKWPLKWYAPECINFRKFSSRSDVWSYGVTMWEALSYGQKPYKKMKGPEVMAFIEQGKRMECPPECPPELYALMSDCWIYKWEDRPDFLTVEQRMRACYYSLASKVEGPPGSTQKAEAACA

CDK9 CCNT1 (human) = CDK9 CCNT1 (human) (UniProt P50750+O60563)
DDR2 (human) = DDR2 (human) (UniProt Q16832)
TSSK1B (human) = TSSK1B (human) (UniProt Q9BXA7)
MAP4K5 (human) = MAP4K5 (human) (UniProt Q9Y4K4)
[3] = tested on: TGFBR1 (human), P36897 [T204D]
MAPK7 (human) = MAPK7 (human) (UniProt Q13164)

Sequence of PRKAA1 PRKAB2 PRKAG1 (human) (O43741 whole entry, looked up): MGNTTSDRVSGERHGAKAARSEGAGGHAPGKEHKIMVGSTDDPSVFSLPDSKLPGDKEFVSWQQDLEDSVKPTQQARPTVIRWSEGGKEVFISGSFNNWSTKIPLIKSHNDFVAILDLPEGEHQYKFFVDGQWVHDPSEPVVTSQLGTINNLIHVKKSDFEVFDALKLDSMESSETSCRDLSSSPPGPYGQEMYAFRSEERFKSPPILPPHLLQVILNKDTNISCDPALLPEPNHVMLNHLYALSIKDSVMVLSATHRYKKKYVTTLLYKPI
Sequence of PRKAA1 PRKAB2 PRKAG1 (human) (P54619 whole entry, looked up): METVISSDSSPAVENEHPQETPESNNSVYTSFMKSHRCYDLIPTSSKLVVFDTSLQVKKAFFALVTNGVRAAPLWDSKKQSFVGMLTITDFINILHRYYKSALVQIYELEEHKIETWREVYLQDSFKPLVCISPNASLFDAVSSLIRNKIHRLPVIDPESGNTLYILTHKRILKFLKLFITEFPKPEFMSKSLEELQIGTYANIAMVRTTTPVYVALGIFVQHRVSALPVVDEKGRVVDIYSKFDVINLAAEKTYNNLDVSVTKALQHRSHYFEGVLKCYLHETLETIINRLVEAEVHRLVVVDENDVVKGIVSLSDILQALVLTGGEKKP
Sequence of PRKAA1 PRKAB2 PRKAG1 (human) (Q13131 whole entry, looked up): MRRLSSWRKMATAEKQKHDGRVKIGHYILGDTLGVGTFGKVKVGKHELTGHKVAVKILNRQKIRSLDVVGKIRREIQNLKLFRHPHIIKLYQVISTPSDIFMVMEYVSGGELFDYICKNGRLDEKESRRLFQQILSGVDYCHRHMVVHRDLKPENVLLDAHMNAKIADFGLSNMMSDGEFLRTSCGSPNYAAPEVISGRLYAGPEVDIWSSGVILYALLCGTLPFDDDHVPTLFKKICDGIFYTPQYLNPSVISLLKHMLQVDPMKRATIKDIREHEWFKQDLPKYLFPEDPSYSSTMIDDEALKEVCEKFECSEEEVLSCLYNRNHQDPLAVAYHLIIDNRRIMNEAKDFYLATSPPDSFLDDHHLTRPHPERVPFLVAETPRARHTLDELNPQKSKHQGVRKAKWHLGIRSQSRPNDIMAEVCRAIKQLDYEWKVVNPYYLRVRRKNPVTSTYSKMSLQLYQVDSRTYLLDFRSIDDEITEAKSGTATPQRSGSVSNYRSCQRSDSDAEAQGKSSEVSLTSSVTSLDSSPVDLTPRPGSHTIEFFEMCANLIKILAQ
Sequence of TTBK2 (human) (Q6IQ55 whole entry, looked up): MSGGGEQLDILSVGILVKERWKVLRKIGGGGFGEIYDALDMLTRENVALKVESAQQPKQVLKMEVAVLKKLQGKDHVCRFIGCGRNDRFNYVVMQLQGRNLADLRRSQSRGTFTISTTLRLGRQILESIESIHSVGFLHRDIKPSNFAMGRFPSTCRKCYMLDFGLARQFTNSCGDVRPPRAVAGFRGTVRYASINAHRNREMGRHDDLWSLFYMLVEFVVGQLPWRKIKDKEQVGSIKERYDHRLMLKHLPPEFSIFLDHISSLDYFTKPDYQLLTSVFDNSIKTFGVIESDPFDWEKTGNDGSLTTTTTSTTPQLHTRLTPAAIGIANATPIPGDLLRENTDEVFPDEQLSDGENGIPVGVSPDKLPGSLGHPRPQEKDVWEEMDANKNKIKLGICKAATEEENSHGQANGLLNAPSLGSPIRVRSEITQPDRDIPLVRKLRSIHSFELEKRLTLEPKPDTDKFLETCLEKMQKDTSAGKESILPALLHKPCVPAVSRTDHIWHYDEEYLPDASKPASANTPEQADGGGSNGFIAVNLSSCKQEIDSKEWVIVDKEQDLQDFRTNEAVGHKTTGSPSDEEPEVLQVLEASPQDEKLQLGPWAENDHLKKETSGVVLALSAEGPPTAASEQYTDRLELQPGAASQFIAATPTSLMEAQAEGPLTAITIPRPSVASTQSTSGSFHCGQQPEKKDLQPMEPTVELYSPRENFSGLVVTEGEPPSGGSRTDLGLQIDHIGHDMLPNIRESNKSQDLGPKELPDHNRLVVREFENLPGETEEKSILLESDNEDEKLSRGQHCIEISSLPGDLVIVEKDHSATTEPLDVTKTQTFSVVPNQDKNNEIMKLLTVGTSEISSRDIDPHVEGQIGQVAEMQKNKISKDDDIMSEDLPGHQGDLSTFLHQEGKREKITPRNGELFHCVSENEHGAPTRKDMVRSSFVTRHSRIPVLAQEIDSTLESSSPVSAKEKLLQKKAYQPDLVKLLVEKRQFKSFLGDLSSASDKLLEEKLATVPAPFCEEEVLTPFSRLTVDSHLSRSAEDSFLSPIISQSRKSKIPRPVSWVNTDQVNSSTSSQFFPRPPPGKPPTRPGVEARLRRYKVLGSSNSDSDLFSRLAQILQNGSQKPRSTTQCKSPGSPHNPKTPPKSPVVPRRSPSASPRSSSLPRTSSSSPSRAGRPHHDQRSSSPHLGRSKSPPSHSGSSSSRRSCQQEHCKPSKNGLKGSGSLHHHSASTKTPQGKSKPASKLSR

Which results are given for `CC1=C(CO)C(=O)O[C@@H]([C@@H](C)[C@H]2CC[C@H]3[C@@H]4C[C@H]5O[C@]56[C@@H](O)C=CC(=O)[C@]6(C)C4CC[C@]23C)C1` (some centres undefined)?
residual activity ([1]; compound 0.1 µM): 107%; residual activity ([1]; compound 1.0 µM): 120%; residual activity ([1]; compound 10.0 µM): 112%; residual activity (TTBK2 (human); compound 0.1 µM): 108%; residual activity (TTBK2 (human); compound 1.0 µM): 105%; residual activity (TTBK2 (human); compound 10.0 µM): 112%; residual activity (ULK1 (human); compound 0.1 µM): 108%; residual activity (ULK1 (human); compound 1.0 µM): 115%; residual activity (ULK1 (human); compound 10.0 µM): 111%; residual activity (SIK2 (human); compound 0.1 µM): 82%; residual activity (SIK2 (human); compound 1.0 µM): 78%; residual activity (SIK2 (human); compound 10.0 µM): 66%; residual activity (ABL1 (human); compound 0.1 µM): 101%; residual activity (ABL1 (human); compound 1.0 µM): 110%; residual activity (ABL1 (human); compound 10.0 µM): 106%; residual activity (WNK1 (human); compound 0.1 µM): 117%; residual activity (WNK1 (human); compound 1.0 µM): 111%; residual activity (WNK1 (human); compound 10.0 µM): 113%; residual activity (CSNK1G2 (human); compound 0.1 µM): 109%; residual activity (CSNK1G2 (human); compound 1.0 µM): 104%; residual activity (CSNK1G2 (human); compound 10.0 µM): 103%; residual activity ([2]; compound 0.1 µM): 128%; residual activity ([2]; compound 1.0 µM): 109%; residual activity ([2]; compound 10.0 µM): 125%; residual activity (TTBK1 (human); compound 0.1 µM): 100%; residual activity (TTBK1 (human); compound 1.0 µM): 118%; residual activity (TTBK1 (human); compound 10.0 µM): 95%; residual activity (CHEK2 (human); compound 0.1 µM): 130%; residual activity (CHEK2 (human); compound 1.0 µM): 116%; residual activity (CHEK2 (human); compound 10.0 µM): 61%; residual activity (MAP4K3 (human); compound 0.1 µM): 81%; residual activity (MAP4K3 (human); compound 1.0 µM): 85%; residual activity (MAP4K3 (human); compound 10.0 µM): 84%; residual activity (PDGFRA (human); compound 1.0 µM): 117%; residual activity (PDGFRA (human); compound 10.0 µM): 121%; residual activity (PRKCG (human); compound 0.1 µM): 119%; residual activity (PRKCG (human); compound 1.0 µM): 112%; residual activity (PRKCG (human); compound 10.0 µM): 102%; residual activity (TLK1 (human); compound 0.1 µM): 101%; residual activity (TLK1 (human); compound 1.0 µM): 103%; residual activity (TLK1 (human); compound 10.0 µM): 98%; residual activity (IRAK1 (human); compound 0.1 µM): 101%; residual activity (IRAK1 (human); compound 1.0 µM): 99%; residual activity (IRAK1 (human); compound 10.0 µM): 100%; residual activity (STK33 (human); compound 0.1 µM): 116%; residual activity (STK33 (human); compound 10.0 µM): 120%; residual activity (SIK3 (human); compound 0.1 µM): 105%; residual activity (SIK3 (human); compound 1.0 µM): 106%; residual activity (SIK3 (human); compound 10.0 µM): 94%; residual activity (TEK (human); compound 1.0 µM): 98%; residual activity (TEK (human); compound 10.0 µM): 83%; residual activity (EIF2AK3 (human); compound 0.1 µM): 129%; residual activity (EIF2AK3 (human); compound 1.0 µM): 108%; residual activity (EIF2AK3 (human); compound 10.0 µM): 115%; residual activity (STK24 (human); compound 0.1 µM): 111%; residual activity (STK24 (human); compound 1.0 µM): 126%; residual activity (STK24 (human); compound 10.0 µM): 133%; residual activity (TESK1 (human); compound 0.1 µM): 109%; residual activity (TESK1 (human); compound 1.0 µM): 114%; residual activity (TESK1 (human); compound 10.0 µM): 104%; residual activity (STK16 (human)): 126%; residual activity (ULK2 (human); compound 0.1 µM): 92%; residual activity (ULK2 (human); compound 1.0 µM): 96%; residual activity (ULK2 (human); compound 10.0 µM): 90%; residual activity (MARK3 (human); compound 0.1 µM): 99%; residual activity (MARK3 (human); compound 1.0 µM): 114%; residual activity (MARK3 (human); compound 10.0 µM): 118%; residual activity (PTK6 (human); compound 0.1 µM): 109%; residual activity (PTK6 (human); compound 1.0 µM): 123%; residual activity (ZAP70 (human); compound 1.0 µM): 113%; residual activity (CDK9 CCNT1 (human); compound 0.1 µM): 94%; residual activity (CDK9 CCNT1 (human); compound 1.0 µM): 97%; residual activity (CDK9 CCNT1 (human); compound 10.0 µM): 107%; residual activity (DDR2 (human); compound 0.1 µM): 105%; residual activity (DDR2 (human); compound 1.0 µM): 100%; residual activity (DDR2 (human); compound 10.0 µM): 94%; residual activity (TSSK1B (human); compound 0.1 µM): 100%; residual activity (TSSK1B (human); compound 1.0 µM): 102%; residual activity (TSSK1B (human); compound 10.0 µM): 78%; residual activity (MAP4K5 (human); compound 0.1 µM): 106%; residual activity (MAP4K5 (human); compound 1.0 µM): 110%; residual activity (MAP4K5 (human); compound 10.0 µM): 94%

What does the source list for `NCC(=O)Nc1ccc(-n2nc(C(F)(F)F)cc2-c2ccc3c(ccc4ccccc43)c2)cc1`?
residual activity ([1]; compound 1.0 µM): 88%; residual activity ([1]; compound 10.0 µM): 94%; residual activity (TTBK2 (human); compound 1.0 µM): 96%; residual activity (TTBK2 (human); compound 10.0 µM): 154%; residual activity (ULK1 (human); compound 1.0 µM): 86%; residual activity (ULK1 (human); compound 10.0 µM): 97%; residual activity (SIK2 (human); compound 1.0 µM): 95%; residual activity (SIK2 (human); compound 10.0 µM): 79%; residual activity (ABL1 (human); compound 1.0 µM): 95%; residual activity (ABL1 (human); compound 10.0 µM): 103%; residual activity (WNK1 (human); compound 10.0 µM): 105%; residual activity (CSNK1G2 (human); compound 1.0 µM): 93%; residual activity (CSNK1G2 (human); compound 10.0 µM): 90%; residual activity ([2]; compound 1.0 µM): 95%; residual activity (TTBK1 (human); compound 1.0 µM): 88%; residual activity (CHEK2 (human); compound 10.0 µM): 76%; residual activity (MAP4K3 (human); compound 1.0 µM): 84%; residual activity (MAP4K3 (human); compound 10.0 µM): 73%; residual activity (PDGFRA (human); compound 1.0 µM): 82%; residual activity (PDGFRA (human); compound 10.0 µM): 98%; residual activity (PRKCG (human); compound 1.0 µM): 95%; residual activity (PRKCG (human); compound 10.0 µM): 97%; residual activity (TLK1 (human); compound 1.0 µM): 89%; residual activity (TLK1 (human); compound 10.0 µM): 104%; residual activity ([3]; compound 1.0 µM): 98%; residual activity ([3]; compound 10.0 µM): 98%; residual activity (IRAK1 (human); compound 10.0 µM): 80%; residual activity (STK33 (human); compound 1.0 µM): 91%; residual activity (STK33 (human); compound 10.0 µM): 92%; residual activity (SIK3 (human); compound 1.0 µM): 91%; residual activity (SIK3 (human); compound 10.0 µM): 101%; residual activity (TEK (human); compound 1.0 µM): 103%; residual activity (EIF2AK3 (human); compound 1.0 µM): 102%; residual activity (STK24 (human); compound 1.0 µM): 84%; residual activity (STK24 (human); compound 10.0 µM): 70%; residual activity (TESK1 (human); compound 1.0 µM): 84%; residual activity (TESK1 (human); compound 10.0 µM): 103%; residual activity (MAPK7 (human); compound 1.0 µM): 91%; residual activity (MAPK7 (human); compound 10.0 µM): 89%; residual activity (MARK3 (human); compound 1.0 µM): 96%; residual activity (MARK3 (human); compound 10.0 µM): 101%; residual activity (PTK6 (human); compound 1.0 µM): 91%; residual activity (PTK6 (human); compound 10.0 µM): 91%; residual activity (ZAP70 (human); compound 1.0 µM): 84%; residual activity (ZAP70 (human); compound 10.0 µM): 83%; residual activity (CDK9 CCNT1 (human); compound 1.0 µM): 82%; residual activity (CDK9 CCNT1 (human); compound 10.0 µM): 83%; residual activity (DDR2 (human); compound 1.0 µM): 92%; residual activity (DDR2 (human); compound 10.0 µM): 101%; residual activity (TSSK1B (human); compound 10.0 µM): 83%; residual activity (MAP4K5 (human); compound 1.0 µM): 80%; residual activity (MAP4K5 (human); compound 10.0 µM): 73%
